Experimental findings from PMC7582707, “Synthesis and Properties of CurNQ for the Theranostic Application in Ovarian Cancer Intervention” (Molecules, 2020) are described below.

In data set [1] the test system is OVCAR-5. The data set is described as follows: Cell viability / cytotoxicity by high content imaging (DAPI nuclei count). It counts as cell-based. To be noted: for IC50: OVCAR-5, 24 h treatment. The procedure: (§1) The ovarian carcinoma cancer cell lines OVCAR-5 and SKOV3 were purchased from Fox Chase Cancer Facility, USA, Jerkitown, […]. The healthy fibroblast cell line NIH: 3T3 was utilized as a control. The cells were cultured in DMEM with the media being supplemented with 10% fetal bovine serum and 1% penicillin-streptomycin. Cells were incubated at 37 °C with 5% CO2. Upon the cells reaching 70–80% confluency, the cells were washed, and sub-cultured by harvesting using trypsin/EDTA.
(§2) Cells were grown until 80% confluency prior to utilization. Upon confluency, media was removed, and cells were washed twice in sterile PBS. Trypsin/EDTA was then added to the flasks and incubated at 37 °C for 5 min, allowing the cells to detach from the bottom of the flask. These cells were then collected and centrifuged. The pellet was resuspended, and the cells were counted using the trypan blue exclusion assay. A predetermined and equal number of cells were then added into each well of a 96-well plate. The cells were incubated overnight at 37 °C and at 5% CO2, allowing the cells to attach to the plates. […] Each treatment was performed in quintuplicate. Treatments occurred for 24 h. Subsequent to this time period, media was removed, and cells were fixed with 5% formaldehyde in PBS for 20 min. Next, cells were incubated for 15 min in a 1 µg/mL solution of DAPI. The plates were then washed several times with PBS to remove all residual DAPI and to reduce background fluorescence. All plates were stored in the dark. Plates were then run on the Logos Biosystem CELENA® X High Content Imaging System and analyses were performed using their proprietary software. IC50 values were calculated using a Prism Graph. Using the Logos Biosystem software, a pipeline was set up to determine the nuclei count, form factor, compactness and eccentricity. The following definitions were used:Eccentricity = ratio of the distance between the foci of the ellipse and its major axis length. Compactness = mean squared distance of the object’s pixels from the centroid divided by the area. Form Factor = 4 × π × Area/Perimeter2

The subject of data set [2] is SKOV3. The description is as above. It counts as cell-based. To be noted: for IC50: Homo sapiens, SK-OV-3, SKOV3, 24 h treatment. The procedure:
as §1, §2

Data set [3] is described as follows: Cell viability / cytotoxicity by high content imaging, healthy fibroblast control. It counts as cell-based. To be noted: mouse, NIH:3T3 fibroblast cells. As to the method: as §1, §2
The subject of data set [4] is NIH:3T3. Described as above. It counts as cell-based. To be noted: Mus musculus, NIH3T3; NIH:3T3 healthy fibroblast, 24 h treatment. The procedure: as §1, §2
Data set [5] has as its system OVCAR-5 cells. The data set is described as follows: Nuclear morphology analysis by high content imaging (eccentricity, compactness, form factor). The format is cell-based. To be noted: 24 h; for form factor of nuclei: OVCAR-5, treatment greater than 50 µM. As to the method: Cells were grown until 80% confluency prior to utilization. Upon confluency, media was removed, and cells were washed twice in sterile PBS. Trypsin/EDTA was then added to the flasks and incubated at 37 °C for 5 min, allowing the cells to detach from the bottom of the flask. These cells were then collected and centrifuged. The pellet was resuspended, and the cells were counted using the trypan blue exclusion assay. A predetermined and equal number of cells were then added into each well of a 96-well plate. The cells were incubated overnight at 37 °C and at 5% CO2, allowing the cells to attach to the plates. […] Each treatment was performed in quintuplicate. Treatments occurred for 24 h. Subsequent to this time period, media was removed, and cells were fixed with 5% formaldehyde in PBS for 20 min. Next, cells were incubated for 15 min in a 1 µg/mL solution of DAPI. The plates were then washed several times with PBS to remove all residual DAPI and to reduce background fluorescence.

The nature of data set [6]: Saturation solubility at different pH. The format is physicochemical. The source says:
Consequently, cancer targeting and specific release of an active agent at the tumor location is essential. Multiple tactics can be employed to achieve this. Herein, we exploited the acidification of the tumor microenvironment that accompanies malignant transformation for targeted detection and treatment. […] The slight acidification of the microenvironment surrounding a tumor is a hallmark feature of cancer and is termed the Warburg effect. Therefore, CurNQ can detect this change in pH associated with malignant transformation resulting from its pH specific solubility.
Figure 4 Fluorescence properties and pH specific properties of CurNQ. (A) Excitation and emission spectra of 1.5 µM solution of CurNQ. (B) Saturation solubility of a I.5 µM solution of CurNQ at pH 7.4 and 6.8.

Each structure is given as a SMILES string. Values after ≈ are worked out from the molar mass of the structure shown. A value given as a limit tells only on which side of the number the result lay.

As usually defined, the viability is the share of living cells, or the viability signal relative to a control. In general, IC50 refers to the concentration that gives 50% inhibition. Turning to `O=C1C=C(Br)C(=O)c2ccccc21` [BrNQ, 2-bromo-1,4-naphthoquinone, reference compound], in data set [1] (Homo sapiens, OVCAR-5, 24 h, read-out: cell viability), the viability at 20 µM was less than 10%. The IC50 in data set [1] (Homo sapiens) amounted to 4.85 µM; in data set [2], 2.74 µM; in data set [4] it was 6.91 µM. Moreover, the viability at 24 h in data set [3] (NIH:3T3, lowest viability reached) is less than 15%. Moreover, the “form factor of nuclei” value in data set [5] is “large increase”.

Turning to `COc1cc(/C=C/C(=O)CC(=O)/C=C/c2ccc(O)c(OC)c2)ccc1O` [CUR, diferuloylmethane, reference compound], the IC50 in data set [1] (Homo sapiens) is 9.64 µM; in data set [2], 4.79 µM; in data set [4], 43.9 µM.

The solubility is the dissolved amount per volume that the medium holds. Higher therefore signals much dissolved substance. For `COc1cc(/C=C/C(=O)/C=C(O)/C=C/c2ccc(OC3=CC(=O)c4ccccc4C3=O)c(OC)c2)ccc1OC1=CC(=O)c2ccccc2C1=O` [CurNQ, 2,2′-((((1E,3Z,6E)-3-hydroxy-5-oxohepta-1,3,6-triene-1,7-diyl)bis(2-methoxy-4,1-phenylene))bis(oxy))bis(naphthalene-1,4-dione)], the solubility in data set [6] (pH 6.8, aqueous buffer) is 20.7 µM (≈ 14.1 µg/mL); in data set [6] (pH 7.4, aqueous buffer) it was 11.2 µM (≈ 7.59 µg/mL). For the same compound, the IC50 in data set [1] (Homo sapiens) is 4.05 µM; in data set [2], 5.35 µM; in data set [4] it was 65.5 µM. Besides, the cell viability result was “below 50%” in data set [1] (OVCAR-5, in vitro cytotoxicity assay); “below 40%” in data set [1] (OVCAR-5, low concentrations, 24-h incubation); “below 50%” in data set [2] (SKOV3, in vitro cytotoxicity assay). The viability at 24 h, 100 µM in data set [3] (NIH:3T3, 100 µM) was found to be 44%. The eccentricity of nuclei entry in data set [5] (OVCAR-5, 5-100 µM) is on record as “decreased in a dose-dependent manner”. Moreover, the “form factor of nuclei” value in data set [5] is on record as “large increase”.
